Experimental data from patent publication US11981944B2, “Immunogenic arginase peptides” (IO Biotech ApS, priority 2016, dated 2024).

Assays:
Type in all cases: cell-based, human
[1] = system: PBMCs from healthy donors or cancer patients; assay: IFNγ ELISPOT on PBMCs after one week peptide and IL-2 stimulation (Example 2); conditions: selected PBMCs from cancer patients and healthy donors; one week stimulation with IL-2; FIG. 10B, 10C
Protocol: PBMCs from healthy donors or cancer patients were stimulated with 80 μg of arginase-derived peptides and 120 U/ml IL-2 (Peprotech, London, UK, cat. 200-02) for a week. 4-6×10^5 PBMCs were then placed in the bottom of ELISPOT plate (nitrocellulose bottomed 96-well plates by MultiScreen MAIP […]; Millipore, cat. MSIPN4W50) pre-coated with IFN-y capture Ab (Mabtech, cat. 3420-3-1000) and 1-10 μg of arginase derived peptides were added. PBMCs from each patient and donors were set up in duplicates or triplicates for peptide and control stimulations. Cells were incubated in ELISPOT plates in the presence of an antigen for 14-16 hours after which they are washed off and secondary biotinylated Ab (Mabtech, cat. 3420-6-1000) was added. After 2 h incubation unbound secondary antibody was washed off and streptavidin conjugated alkaline phosphatase (AP) (Mabtech, cat. 3310-10) was added for 1 h. Next, unbound conjugated enzyme is washed off and the assay is developed by adding BCIP/NBT substrate (Mabtech, cat. 3650-10). Developed ELISPOT plates were analysed on CTL ImmunoSpot S6 Ultimate-V analyzer using Immunospot software v5.1. Responses were calculated as the difference between average numbers of spots in wells stimulated with Arginase-1 peptides and control wells. We divided the entire arginase-1 protein sequence into overlapping 20-amino-acid-long peptides, generating a library of 31 peptides covering the whole sequence (SEQ ID NOs 18-48)). Each peptide in the library overlapped with the first 10 amino acids of the following peptide. Using this arginase peptide library and the IFNγ ELISPOT assay, we next screened PBMCs from melanoma patients and healthy donors for spontaneous responses (FIGS. 9A and 9B). The PBMCs were stimulated for one week with a pool of 3-4 adjacent 20-mer arginase library peptides and low-dose IL-2 (120 U/mL). They were then set up for an IFNγ ELISPOT assay to screen for responses against each 20-mer peptide separately. […] Among these overlapping peptides, […]-200), and Arg(191-210) spanned a 50-amino-acid-long region that was deemed a hot-spot region since nearly all patients harbored a response against one or more of these peptides (FIG. 9A). The selected eight peptides were further used to screen for spontaneous immune responses against arginase-1 in PBMCs from eight healthy donors using IFNγ ELISPOT. […] Since we most frequently observed responses against arginase-1 peptides from the hot-spot region, we next analyzed whether longer peptides covering the same sequence could be used instead of four 20-mers. […] We then divided the arginase-1 hot-spot region into two 30-mer peptides that overlapped by 10 amino acids (peptides labelled by reference to start and end position): […]-190) and […]-210). These 30-mer peptides were used to check for responses in selected PBMCs from cancer patients and healthy donors, which had previously shown responses against the 20-mer hot-spot peptides. The PBMCs were stimulated for one week with either […]-190) or […]-210) in the presence of IL-2, and were then used in IFNγ ELISPOT.

[2] = system: PBMCs from two healthy donors and one cancer patient; assay: Intracellular staining for IFNγ and TNFα release in PBMCs
Protocol: Flow cytometry analysis was performed on a FACSCanto™ II (BD Biosciences, San Jose CA, USA). Intracellular staining of cell cultures was performed after the cells were stimulated with 20-mere peptides for 5 hours or 30-mere peptides for 8h (BD GolgiPlug™ cat. 555029, was added after the first hour). The cells were then stained for surface markers, then washed and permeabilized by using Fixation/Permeabilization and Permeabilization Buffer (eBioscience, cat. 00-5123-43), according to manufacturer's instructions. Antibodies used: IFNγ-APC (cat. 341117), TNFα-BV421 (cat. 562783), CD4-FITC (cat. 347413), CD8-PerCP (cat. 345774) (all from BD Biosciences). Dead cells were stained using FVS510 (564406, BD Biosciences) according to manufacturer's instructions.
To investigate which types of T cells reacted to the peptide epitopes in the hot-spot region, we performed intracellular staining for IFNγ and TNFα release in PBMCs from two healthy donors and one cancer patient, which had shown responses against the Arg(161-190) peptide in IFNγ ELISPOT.

[3] = system: PBMCs from cancer patients; assay: IFNγ ELISPOT with HLA Class I / Class II blocking; conditions: anti-Class I W6/32 or anti-Class II Tü39; FIG. 11B
Protocol: PBMCs from healthy donors or cancer patients were stimulated with 80 μg of arginase-derived peptides and 120 U/ml IL-2 (Peprotech, London, UK, cat. 200-02) for a week. 4-6×10^5 PBMCs were then placed in the bottom of ELISPOT plate (nitrocellulose bottomed 96-well plates by MultiScreen MAIP N45; Millipore, cat. MSIPN4W50) pre-coated with IFN-y capture Ab (Mabtech, cat. 3420-3-1000) and 1-10 μg of arginase derived peptides were added. PBMCs from each patient and donors were set up in duplicates or triplicates for peptide and control stimulations. Cells were incubated in ELISPOT plates in the presence of an antigen for 14-16 hours after which they are washed off and secondary biotinylated Ab (Mabtech, cat. 3420-6-1000) was added. After 2 h incubation unbound secondary antibody was washed off and streptavidin conjugated alkaline phosphatase (AP) (Mabtech, cat. 3310-10) was added for 1 h. Next, unbound conjugated enzyme is washed off and the assay is developed by adding BCIP/NBT substrate (Mabtech, cat. 3650-10). Developed ELISPOT plates were analysed on CTL ImmunoSpot S6 Ultimate-V analyzer using Immunospot software v5.1. Responses were calculated as the difference between average numbers of spots in wells stimulated with Arginase-1 peptides and control wells. […]

[4] = system: arginase-specific CD4+ T-cell culture; assay: Recognition by arginase-specific CD4+ T-cell culture (ArgShort-stimulated)
Protocol: PBMCs from healthy donors or cancer patients were stimulated with 80 μg of arginase-derived peptides and 120 U/ml IL-2 (Peprotech, London, UK, cat. 200-02) for a week. 4-6×10^5 PBMCs were then placed in the bottom of ELISPOT plate (nitrocellulose bottomed 96-well plates by MultiScreen MAIP N45; Millipore, cat. MSIPN4W50) pre-coated with IFN-y capture Ab (Mabtech, cat. 3420-3-1000) and 1-10 μg of arginase derived peptides were added. PBMCs from each patient and donors were set up in duplicates or triplicates for peptide and control stimulations. Cells were incubated in ELISPOT plates in the presence of an antigen for 14-16 hours after which they are washed off and secondary biotinylated Ab (Mabtech, cat. 3420-6-1000) was added. After 2 h incubation unbound secondary antibody was washed off and streptavidin conjugated alkaline phosphatase (AP) (Mabtech, cat. 3310-10) was added for 1 h. Next, unbound conjugated enzyme is washed off and the assay is developed by adding BCIP/NBT substrate (Mabtech, cat. 3650-10). Developed ELISPOT plates were analysed on CTL ImmunoSpot S6 Ultimate-V analyzer using Immunospot software v5.1. Responses were calculated as the difference between average numbers of spots in wells stimulated with Arginase-1 peptides and control wells.
Arginase-specific T cell culture were established by stimulation of cancer patient PBMC with irradiated ArgShort (SEQ ID NO 9) peptide-loaded autologous DC or PBMCs. The following day IL-7 and IL-12 (PeproTech, London, UK, cat. 200-07-10 and 200-12) were added. Stimulation of the cultures were carried out every 8 days with ArgShort peptide loaded irradiated autologous DC followed by ArgShort peptide-loaded irradiated autologous PBMC. The day after peptide stimulation IL-2 […]. After 5 stimulations arginase-specific T cells were enriched using TNF-α cell enrichment kit (MiltenyiBiotec, cat. 130-091-269).
Flow cytometry analysis was performed on a FACSCanto™ II (BD Biosciences, San Jose CA, USA). […]

GFSWVTPCISAKDIVYIGLRDVDPGEHYIL (Peptide fragment of human Arginase 1) [Arg(161-190), 30-mer, positions 161-190 of human Arginase 1]
IFNγ ELISPOT responses against longer hot-spot peptides [1]: high responses | TNFα release from CD4+ T cells ([2]; 8-hour incubation with peptide, FIG. 11A): detected TNFα release from CD4+ T cells | response from CD8+ T cells ([2]; some samples, data not shown): minor response | IFNγ release in response to peptide on blocking HLA Class I or Class II [3]: partially blocked the IFNγ release | TNFα release from CD4+ T cells, intracellular staining ([4]; 8 hours of peptide stimulation, FIG. 11C right): TNFα release from CD4+ T cells | recognition by T-cell culture specific against the minimal arginase epitope ([4]; IFNγ ELISPOT and intracellular staining, FIG. 11C): recognized
